# Where two headings read alike, the source gives them in different places.
# Experiments:
# [1] = test system: C4-2 cells; assay: Cell-based killing assay of payloads (CellTiter-Glo), C4-2 cells; parameters: species or system human; conditions: 5-day incubation; for IC50: Homo sapiens, C4-2, 120 h, average ± SD where replicates; for C4-2 % Kill: at maximum concentration tested (100 − % viable cells)
# Experimental: (§1) To test the ability of the disclosed tubulysin payloads to kill human cell lines, an in vitro cytotoxicity assay was performed. In vitro cytotoxicity of the disclosed payloads, as well as reference compounds, were evaluated using the CellTiter-Glo Assay Kit (Promega, Cat #G7573), in which the quantity of ATP present is used to determine the number of viable cells in culture. For the assay, C4-2, HEK293, or T47D cells were seeded at 4000 cells/well on Nunclon white 96-well plates in complete growth medium (DME high glucose:Ham's F12 at 4:1, 10% FBS, 100 units/ml Penicillin, 100 ug/ml streptomycin, 53 ug/ml glutatmine, 10 ug/ml insulin, 220 ng/ml biotin, 12.5 pg/ml T3, 12.5 ug/ml Adenine, 4 ug/ml transferrin for C42 cells; DME high glucose, 10% FBS, 100 units/ml Penicillin, 100 ug/ml streptomycin, 53 ug/ml glutatmine for HEK293; RPMI, 10% FBS, 100 units/ml Penicillin, 100 ug/ml streptomycin, 53 ug/ml glutatmine, 10 ug/ml insulin, 10 mM HEPEs, 200 nM Sodium Pyruvate for T47D cells) and grown overnight at 37° C. in 5% CO2. For cell viability curves, 1:3 serially diluted payloads were added to the cells at final concentrations ranging from 100 nM to […], including a no treatment control group, and were then incubated for 5 days. After the 5-day incubation, cells were incubated at room temperature with 100 μL of CellTiter-Glo reagents for 10 minutes. Relative luminescence units (RLU) were determined on a Victor plate reader (PerkinElmer). The IC50 values were determined from a four-parameter logistic equation over a 10-point response curve (GraphPad Prism). All IC50 values are expressed in molar (M) concentration. The percent cell killing (% kill) at the maximum concentration tested was estimated from the following formula (100−% viable cells). Averages±standard deviation (SD) are included where replicate experiments were performed.
# [2] = test system: HCT15 cells; assay: cells; assay type: cell-based, human; conditions: HCT15 cells; for HCT-15 + verapamil % Kill / HCT-15 % Kill: maximum % cell killing
# Experimental: as §1
# In vitro cytotoxicity of the disclosed payloads as well as reference compounds were evaluated similarly as described above except using 1000 HCT15 cells, a colorectal carcinoma cell line, in growth medium (RPMI, 10% FBS, 100 units/ml Penicillin, 100 ug/ml streptomycin, 53 ug/ml glutatmine) with or without 5 ug/mL of Verapamil.
# [3] = test system: HL60/MX2 cells; assay: Cytotoxicity in panel of MDR cell lines, HL60/MX2 (72 h and 144 h); assay type: cell-based, human; conditions: for IC50: Homo sapiens
# Experimental: as §1
# (§2) To further test the ability of the disclosed tubulysin payloads, a cytotoxicity assay was performed using a panel of multidrug resistant (MDR) cell lines. In vitro cytotoxicity of the disclosed payloads as well as reference compounds were similarly evaluated as described above except using HCT-15 cells, a colorectal carcinoma cell line; H69AR, a doxorubicin resistant MDR derivative of the small cell lung cancer carcinoma cell line NCI-H69; MES-SA/MX2, a mitoxantrone resistant MDR derivative of the uterine sarcoma cell line MES-SA; and HL60/MX2, a mitoxantrone resistant MDR derivative of the acute promyelocytic leukemia cell line HL60. In these assays, cytotoxicity was evaluated in normal growth media (RPMI, 10% FBS, 100 units/ml Penicillin, 100 ug/ml streptomycin, and 53 ug/ml glutatmine for HCT-15 and HL60/MX2; RPMI, 20% FBS, 100 units/ml Penicillin, 100 ug/ml streptomycin, and 53 ug/ml glutatmine for H69-AR; Waymouths's:McCoy's (1:1), 10% FBS, 100 units/ml Penicillin, 100 ug/ml streptomycin, and 53 ug/ml glutatmine for MES-SA/MX2) with 1000 cells per well following 72 h and 144 h incubation with payloads.
# [4] = test system: MES-SA/MX2 cells; assay: Cytotoxicity in panel of MDR cell lines, MES-SA/MX2 (72 h and 144 h); assay type: cell-based, human; conditions: for IC50: Homo sapiens
# Experimental: as §1, §2
# [5] = test system: HCT-15 cells; assay: Cytotoxicity in panel of MDR cell lines, HCT-15 (72 h and 144 h); assay type: cell-based, human; conditions: for IC50: Homo sapiens
# Experimental: as §1, §2
# [6] = test system: H69AR cells; assay: Cytotoxicity in panel of MDR cell lines, H69AR (72 h and 144 h); assay type: cell-based, human; conditions: for IC50: Homo sapiens
# Experimental: as §1, §2
# [7] = with 5 ug/mL Verapamil, read-out: HCT-15 + verapamil IC50
# [8] = Homo sapiens, HCT-15, without Verapamil, read-out: HCT-15 IC50
# [9] = 72 h incubation, read-out: HL60/MX2 IC50 72 h
# [10] = 144 h incubation, read-out: HL60/MX2 IC50 144 h
# [11] = 72 h incubation, read-out: MES-SA/MX2 IC50 72 h
# [12] = 144 h incubation, read-out: MES-SA/MX2 IC50 144 h
# [13] = 72 h incubation, read-out: HCT-15 IC50 72 h
# [14] = 144 h incubation, read-out: HCT-15 IC50 144 h
# [15] = 72 h incubation, read-out: H69AR IC50 72 h
# [16] = 144 h incubation, read-out: H69AR IC50 144 h
structure (smiles),measurement,setting,value
"CC[C@H](C)[C@H](NC(=O)[C@H]1CCCCN1C)C(=O)N(CCCCc1cn(Cc2ccccc2)nn1)[C@H](C[C@@H](OC(C)=O)c1nc(C(=O)N[C@@H](Cc2ccc(N)cc2)CC(C)(C)C(=O)O)cs1)C(C)C [IVo, (S)-4-(2-((1R,3R)-1-Acetoxy-3-((2S,3S)—N-(4-(1-benzyl-1H-1,2,3-triazol-4-yl)butyl)-3-methyl-2-((R)-1-methylpiperidine-2-carboxamido)pentanamido)-4-methylpentyl)thiazole-4-carboxamido)-5-(4-aminophenyl)-2,2-dimethylpentanoic acid]",IC50,[1],0.262 nM
same,C4-2 % Kill,[1],93.4%
same,HCT-15 + verapamil % Kill,[2]; with 5 ug/mL Verapamil,97.6%
same,IC50,[2]; [7],0.109 nM
same,HCT-15 % Kill,[2]; without Verapamil,98.6%
same,IC50,[2]; [8],0.37 nM
same,HL60/MX2 % Kill 72 h,[3]; 72 h incubation,98.1%
same,HL60/MX2 % Kill 144 h,[3]; 144 h incubation,100%
same,IC50,[3]; [9],0.0376 nM
same,IC50,[3]; [10],< 0.015 nM
same,MES-SA/MX2 % Kill 72 h,[4]; 72 h incubation,98.9%
same,MES-SA/MX2 % Kill 144 h,[4]; 144 h incubation,99.9%
same,IC50,[4]; [11],1.12 nM
same,IC50,[4]; [12],2.96 nM
same,HCT-15 % Kill 72 h,[5]; 72 h incubation,97.3%
same,HCT-15 % Kill 144 h,[5]; 144 h incubation,99.7%
same,IC50,[5]; [13],0.247 nM
same,IC50,[5]; [14],0.348 nM
same,H69AR % Kill 72 h,[6]; 72 h incubation,96.2%
same,H69AR % Kill 144 h,[6]; 144 h incubation,99.1%
same,IC50,[6]; [15],0.779 nM
same,IC50,[6]; [16],1.27 nM
"CCCCCCN(C(=O)[C@@H](NC(=O)[C@H]1CCCCN1C)[C@@H](C)CC)[C@H](C[C@@H](OC(C)=O)c1nc(C(=O)NC(Cc2ccc(F)c(NC)c2)CC(C)(C)C(=O)O)cs1)C(C)C (stereo partly drawn) [IVt, 4-(2-((1R,3R)-1-acetoxy-3-((2S,3S)—N-hexyl-3-methyl-2-((R)-1-methylpiperidine-2-carboxamido)pentanamido)-4-methylpentyl)thiazole-4-carboxamido)-5-(4-fluoro-3-(methylamino)phenyl)-2,2-dimethylpentanoic acid]",IC50,[1],0.11 nM
same,C4-2 % Kill,[1],94.2%
same,HL60/MX2 % Kill 72 h,[3]; 72 h incubation,98.4%
same,HL60/MX2 % Kill 144 h,[3]; 144 h incubation,100%
same,IC50,[3]; [9],< 0.015 nM
same,IC50,[3]; [10],< 0.015 nM
same,MES-SA/MX2 % Kill 72 h,[4]; 72 h incubation,99.3%
same,MES-SA/MX2 % Kill 144 h,[4]; 144 h incubation,100%
same,IC50,[4]; [11],0.447 nM
same,IC50,[4]; [12],0.74 nM
same,HCT-15 % Kill 72 h,[5]; 72 h incubation,97.6%
same,HCT-15 % Kill 144 h,[5]; 144 h incubation,99.8%
same,IC50,[5]; [13],0.143 nM
same,IC50,[5]; [14],0.18 nM
same,H69AR % Kill 72 h,[6]; 72 h incubation,96.3%
same,H69AR % Kill 144 h,[6]; 144 h incubation,99.3%
same,IC50,[6]; [15],0.486 nM
same,IC50,[6]; [16],0.819 nM
"CCCCCCN(C(=O)[C@@H](NC(=O)[C@H]1CCCCN1C)[C@@H](C)CC)[C@H](C[C@@H](OC(C)=O)c1nc(C(=O)NC(Cc2ccc(F)c(N)c2)CC(C)(C)C(=O)O)cs1)C(C)C (stereo partly drawn) [IVu, 4-({2-[(1R,3R)-1-(Acetyloxy)-3-[(2S,3S)—N-hexyl-3-methyl-2-{[(2R)-1-methylpiperidin-2-yl]formamido}pentanamido]-4-methylpentyl]-1,3-thiazol-4-yl}formamido)-5-(3-amino-4-fluorophenyl)-2,2-dimethylpentanoic acid]",IC50,[1],0.114 nM
same,C4-2 % Kill,[1],93.9%
same,HL60/MX2 % Kill 72 h,[3]; 72 h incubation,98%
same,HL60/MX2 % Kill 144 h,[3]; 144 h incubation,99.9%
same,IC50,[3]; [9],< 0.015 nM
same,IC50,[3]; [10],< 0.015 nM
same,MES-SA/MX2 % Kill 72 h,[4]; 72 h incubation,98.8%
same,MES-SA/MX2 % Kill 144 h,[4]; 144 h incubation,100%
same,IC50,[4]; [11],0.535 nM
same,IC50,[4]; [12],1.21 nM
same,HCT-15 % Kill 72 h,[5]; 72 h incubation,97.9%
same,HCT-15 % Kill 144 h,[5]; 144 h incubation,99.8%
same,IC50,[5]; [13],0.134 nM
same,IC50,[5]; [14],0.242 nM
same,H69AR % Kill 72 h,[6]; 72 h incubation,96.4%
same,H69AR % Kill 144 h,[6]; 144 h incubation,99%
same,IC50,[6]; [15],0.634 nM
same,IC50,[6]; [16],1.04 nM
"CCCCCCON(C(=O)[C@@H](NC(=O)[C@H]1CCCCN1C)[C@@H](C)CC)[C@H](C[C@@H](OC(=O)NC)c1nc(C(=O)N[C@@H](Cc2ccc(O)cc2)C[C@H](C)C(=O)O)cs1)C(C)C [VIa, (2S,4R)-5-(4-Hydroxyphenyl)-4-(2-((5R,7R)-7-isopropyl-8-((2S,3S)-3-methyl-2-((R)-1-methylpiperidine-2-carboxamido)pentanoyl)-3-oxo-4,9-dioxa-2,8-diazapentadecan-5-yl)thiazole-4-carboxamido)-2-methylpentanoic acid]",IC50,[1],1.86 nM
same,C4-2 % Kill,[1],94.1%
same,HCT-15 + verapamil % Kill,[2]; with 5 ug/mL Verapamil,98.4 ± 0.7%
same,IC50,[2]; [7],0.255 nM
same,HCT-15 % Kill,[2]; without Verapamil,97 ± 1.9%
same,IC50,[2]; [8],5.8 nM
same,HCT-15 % Kill 72 h,[5]; 72 h incubation,94%
same,HCT-15 % Kill 144 h,[5]; 144 h incubation,98.9%
same,IC50,[5]; [13],5.42 nM
same,IC50,[5]; [14],7.17 nM
same,H69AR % Kill 72 h,[6]; 72 h incubation,83.5%
same,H69AR % Kill 144 h,[6]; 144 h incubation,91.6%
same,IC50,[6]; [15],16 nM
same,IC50,[6]; [16],80.1 nM
CCCC(=O)OCN(C(=O)[C@@H](NC(=O)[C@H]1CCCCN1C)[C@@H](C)CC)[C@H](C[C@@H](OC(C)=O)c1nc(C(=O)N[C@@H](Cc2ccc(O)cc2)C[C@H](C)C(=O)O)cs1)C(C)C [reference compound],IC50,[1],0.109 nM
same,C4-2 % Kill,[1],96.4%
same,HCT-15 + verapamil % Kill,[2]; with 5 ug/mL Verapamil,99.1%
same,IC50,[2]; [7],0.128 nM
same,HCT-15 % Kill,[2]; without Verapamil,99.1%
same,IC50,[2]; [8],0.509 nM
same,HL60/MX2 % Kill 72 h,[3]; 72 h incubation,98%
same,HL60/MX2 % Kill 144 h,[3]; 144 h incubation,100%
same,IC50,[3]; [9],< 0.015 nM
same,IC50,[3]; [10],< 0.015 nM
same,MES-SA/MX2 % Kill 72 h,[4]; 72 h incubation,98.6%
same,MES-SA/MX2 % Kill 144 h,[4]; 144 h incubation,99.9%
same,IC50,[4]; [11],0.573 nM
same,IC50,[4]; [12],1.33 nM
